Source: PubChem BioAssay (NCI)
Values joined by “and” are separate entries in the source; they are usually repeats but may differ in a detail not shown here. Identical values can stand only once.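 1) Cells in 96-well plates. 2) Compound, 48 h, 5 concentrations. 3) Linear interpolation between surrounding doses. 4) Unreached endpoint = highest concentration. Here, GI50 denotes the concentration required for 50% inhibition of growth. TGI: total growth inhibition.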

Key:
Assay in all cases: DTP human tumour cell line panel, 48 h
SW-620 colon = test system: SW-620 colon
OVCAR-3 ovarian = test system: OVCAR-3 ovarian
EKVX NSCLC = test system: EKVX NSCLC
A549 NSCLC = test system: A549 NSCLC
NCI/ADR-RES ovarian = test system: NCI/ADR-RES ovarian
NCI-H522 lung = test system: NCI-H522 lung

With CCc1n[nH]c(=O)n1CCCCCCCCn1c(CC)n[nH]c1=O the TGI (SW-620 colon) was over 100 µM, the TGI (OVCAR-3 ovarian) was over 100 µM and the TGI (EKVX NSCLC) was over 100 µM. It also gave a TGI (A549 NSCLC) of over 100 µM, a TGI (NCI/ADR-RES ovarian) of over 100 µM and a TGI (NCI-H522 lung) of over 100 µM.
In the case of CC1(C)CCN2C(=O)C34CCCC3CC21S4 (stereo not drawn), the TGI (SW-620 colon) is reported as over 100 µM, the TGI (OVCAR-3 ovarian) is reported as over 100 µM and the TGI (EKVX NSCLC) is reported as over 100 µM. It also gave a TGI (A549 NSCLC) of over 100 µM, a TGI (NCI/ADR-RES ovarian) of over 100 µM and a TGI (NCI-H522 lung) of over 100 µM.
For FC(F)(F)c1ccccc1C1SCC2=Nc3ccccc3CN21 (stereo not drawn), the TGI (SW-620 colon) was over 100 µM, the TGI (EKVX NSCLC) was 24.9 µM and the TGI (A549 NSCLC) was 27.6 µM. The TGI (NCI/ADR-RES ovarian) was 35.7 µM.
For CNC(=O)c1n[nH]n(C2CCCCC2)c1=S, the TGI (SW-620 colon) was over 100 µM, the TGI (OVCAR-3 ovarian) was 37 µM and the TGI (EKVX NSCLC) was over 100 µM. It also gave a TGI (A549 NSCLC) of over 100 µM, a TGI (NCI/ADR-RES ovarian) of over 100 µM and a TGI (NCI-H522 lung) of over 100 µM.
Molecule Cn1c(=O)c2[nH]c(N=O)nc2n(C)c1=O has a TGI (SW-620 colon) of over 100 µM, a TGI (OVCAR-3 ovarian) of over 100 µM and a TGI (EKVX NSCLC) of over 100 µM. The TGI (A549 NSCLC) was over 100 µM, the TGI (NCI/ADR-RES ovarian) was over 100 µM and the TGI (NCI-H522 lung) was over 100 µM.
CCOC(=O)c1c[nH]c(C(=O)OCC)c1-c1cccn1-c1ccccc1 gave a TGI (SW-620 colon) of over 100 µM, a TGI (OVCAR-3 ovarian) of 37.4 µM and a TGI (EKVX NSCLC) of over 100 µM. It also gave a TGI (A549 NSCLC) of over 100 µM, a TGI (NCI/ADR-RES ovarian) of 76 µM and a TGI (NCI-H522 lung) of 55.4 µM.
With CC(C)C1CNC(=O)C2(C=NC(C(C)C)CNC(=O)C3(C=N1)CCCO3)CCCO2 (stereo not drawn) the TGI (SW-620 colon) was over 10 µM, the TGI (OVCAR-3 ovarian) was over 10 µM and the TGI (EKVX NSCLC) was over 10 µM. It also gave a TGI (A549 NSCLC) of over 10 µM, a TGI (NCI/ADR-RES ovarian) of over 10 µM and a TGI (NCI-H522 lung) of over 10 µM.
Work on Cc1ccc(S(=O)c2cccs2)cc1 (stereo not drawn) yielded a TGI (SW-620 colon) of over 100 µM, a TGI (OVCAR-3 ovarian) of over 100 µM and a TGI (EKVX NSCLC) of over 100 µM. The TGI (A549 NSCLC) was over 100 µM and the TGI (NCI/ADR-RES ovarian) was over 100 µM.
COc1ccc(-n2c(CCC(=O)O)nc3c2C(=O)c2ccccc2C3=O)cc1 showed a TGI (SW-620 colon) of over 100 µM, a TGI (OVCAR-3 ovarian) of over 100 µM and a TGI (EKVX NSCLC) of over 100 µM. The TGI (A549 NSCLC) was over 100 µM, the TGI (NCI/ADR-RES ovarian) was over 100 µM and the TGI (NCI-H522 lung) was over 100 µM.
Work on O=C(Nc1ccc([N+](=O)[O-])cc1)Nn1cnnc1 yielded a TGI (SW-620 colon) of over 100 µM, a TGI (OVCAR-3 ovarian) of 72.8 µM and a TGI (EKVX NSCLC) of over 100 µM. It also gave a TGI (A549 NSCLC) of over 100 µM and a TGI (NCI-H522 lung) of over 100 µM.
Molecule CCOC(=O)C(NC(=O)OCc1ccccc1)C(=O)O (stereo not drawn) has a TGI (SW-620 colon) of over 100 µM, a TGI (OVCAR-3 ovarian) of over 100 µM and a TGI (EKVX NSCLC) of over 100 µM. For the same molecule, the TGI (A549 NSCLC) was over 100 µM, the TGI (NCI/ADR-RES ovarian) was over 100 µM and the TGI (NCI-H522 lung) was over 100 µM.
Work on O=C1OC(c2ccccc2)=NC1c1ccccc1 (stereo not drawn) yielded a TGI (SW-620 colon) of over 100 µM, a TGI (OVCAR-3 ovarian) of over 100 µM and a TGI (EKVX NSCLC) of over 100 µM. The TGI (A549 NSCLC) was over 100 µM, the TGI (NCI/ADR-RES ovarian) was over 100 µM and the TGI (NCI-H522 lung) was over 100 µM.
Molecule Brc1ccc(C2C3CSc4ccccc4C3=NN2c2ccccc2)cc1 (stereo not drawn) has a TGI (SW-620 colon) of over 100 µM, a TGI (OVCAR-3 ovarian) of over 100 µM and a TGI (A549 NSCLC) of over 100 µM. It also gave a TGI (NCI/ADR-RES ovarian) of over 100 µM.
NS(=O)(=O)c1ccc(NC(=O)N/N=C/c2ccccc2O)cc1 showed a TGI (SW-620 colon) of over 100 µM, a TGI (OVCAR-3 ovarian) of over 100 µM and a TGI (EKVX NSCLC) of over 100 µM. It also gave a TGI (A549 NSCLC) of over 100 µM, a TGI (NCI/ADR-RES ovarian) of over 100 µM and a TGI (NCI-H522 lung) of over 100 µM.
Molecule COC1(CC[C@@H](C)COC2OC(CO)C(O)C(O)C2O)O[C@H]2C[C@H]3[C@@H]4CC=C5C[C@@H](OC6OC(CO)C(OC7OC(C)C(O)C(O)C7O)C(O)C6OC6OC(C)C(O)C(O)C6O)CC[C@]5(C)[C@H]4CC[C@]3(C)[C@H]2[C@@H]1C (stereo partly drawn) has a GI50 (SW-620 colon) of 0.795 µM, a TGI (SW-620 colon) of 2.21 µM and a GI50 (OVCAR-3 ovarian) of 2.04 µM. For the same molecule, the TGI (OVCAR-3 ovarian) was 6.64 µM, the GI50 (EKVX NSCLC) was 10 µM and the TGI (EKVX NSCLC) was 33.3 µM. It also gave a GI50 (A549 NSCLC) of 1.55 µM, a TGI (A549 NSCLC) of 4.22 µM and a GI50 (NCI/ADR-RES ovarian) of 2.59 µM. The TGI (NCI/ADR-RES ovarian) was 6.19 µM and the TGI (NCI-H522 lung) was 4.23 µM.
COc1cc(OC2OC(CO)C(O)C(O)C2O)c2c(O)c3c(=O)cc(C)oc3cc2c1 (stereo not drawn) showed a TGI (SW-620 colon) of over 100 µM, a TGI (OVCAR-3 ovarian) of over 100 µM and a TGI (EKVX NSCLC) of over 100 µM. The TGI (A549 NSCLC) was over 100 µM and the TGI (NCI-H522 lung) was over 100 µM.
Work on CC(C)(O)/C1=C/C=C/CCCCCCCCCC1 yielded a TGI (SW-620 colon) of over 100 µM, a TGI (OVCAR-3 ovarian) of over 100 µM and a TGI (EKVX NSCLC) of over 100 µM. The TGI (NCI/ADR-RES ovarian) was over 100 µM and the TGI (NCI-H522 lung) was over 100 µM.
C=CCCC1(O)C(O)C(CO)O[C@H](O[C@@]2(CO)OC(CO)C(O)C2O)C1O (stereo partly drawn) showed a TGI (SW-620 colon) of over 100 µM, a TGI (EKVX NSCLC) of over 100 µM and a TGI (A549 NSCLC) of over 100 µM. The TGI (NCI/ADR-RES ovarian) was over 100 µM and the TGI (NCI-H522 lung) was over 100 µM.
In the case of O=C/C(=C1/C=Cc2cc([N+](=O)[O-])ccc2S1)c1ccccc1, the TGI (OVCAR-3 ovarian) is reported as over 100 µM, the TGI (EKVX NSCLC) is reported as over 100 µM and the TGI (A549 NSCLC) is reported as over 100 µM. The TGI (NCI/ADR-RES ovarian) was over 100 µM and the TGI (NCI-H522 lung) was over 100 µM.
Nc1nc(NNc2cccc(F)c2)cc(=O)[nH]1 was tested, and the TGI (SW-620 colon) was over 100 µM, the TGI (OVCAR-3 ovarian) was 51.5 µM and the TGI (EKVX NSCLC) was over 100 µM. The TGI (A549 NSCLC) was over 100 µM and the TGI (NCI/ADR-RES ovarian) was over 100 µM.
Work on CC(C)(C)OC(=O)NC1CCCC1C(=O)C1=CCCC1 (stereo not drawn) yielded a TGI (SW-620 colon) of over 100 µM, a TGI (OVCAR-3 ovarian) of over 100 µM and a TGI (A549 NSCLC) of over 100 µM. The TGI (NCI/ADR-RES ovarian) was over 100 µM.
For CC1=CC(=O)CC2(C)CCC(C(C)CC(=O)CC(C)C)CC12OO (stereo not drawn), the TGI (SW-620 colon) was 31.9 µM and 35.7 µM, the TGI (EKVX NSCLC) was 36.8 µM and 34.3 µM and the TGI (A549 NSCLC) was 30 µM and 31.1 µM. The TGI (NCI/ADR-RES ovarian) was 56.6 µM and 81.2 µM, the GI50 (NCI-H522 lung) was 4.8 µM and 12.6 µM and the TGI (NCI-H522 lung) was 19.5 µM and 26.9 µM.
Work on CSc1ncnc2c1cnn2Cc1cn(COCCO)nn1 yielded a TGI (SW-620 colon) of over 100 µM, a TGI (OVCAR-3 ovarian) of 59.1 µM and a TGI (A549 NSCLC) of over 100 µM. For the same molecule, the TGI (NCI/ADR-RES ovarian) was over 100 µM.
